Measured values taken from the NIST ThermoML archive (doi:10.1021/je0602824).

Key:
[1] = xn = mol fraction of the nth substance listed; settings: 101 kPa, Liquid, x1 = 1
[2] = 101 kPa, Liquid

O [water] + CCn1cc[n+](C)c1.O=C([O-])C(F)(F)F
[1]
Settings	mass density [kg/m3]
278.15 K	999.99
308.15 K	994.06
328.15 K	985.71
338.15 K	980.56
348.15 K	974.84

O [water] + CCOS(=O)(=O)[O-].CCn1cc[n+](C)c1
[1]
Settings	mass density [kg/m3]
278.15 K	999.99
308.15 K	994.06
328.15 K	985.71
338.15 K	980.56
348.15 K	974.84

CCn1cc[n+](C)c1.O=C([O-])C(F)(F)F [1-ethyl-3-methylimidazolium trifluoroacetate]
[2]
Settings	mass density [kg/m3]	viscosity [mPa·s]
278.15 K	1306.89	78
288.15 K	1298.81	48
298.15 K	1290.8	32
308.15 K	1282.85	23
318.15 K	1274.95	17
328.15 K	1267.12	13
338.15 K	1259.35	10
348.15 K	1251.63	9

O [water] + CCn1cc[n+](C)c1.O=S(=O)([O-])C(F)(F)F
[1]
Settings	mass density [kg/m3]
278.15 K	999.99
308.15 K	994.06
328.15 K	985.71
338.15 K	980.56
348.15 K	974.84

CCn1cc[n+](C)c1.O=S(=O)([O-])C(F)(F)F [1-ethyl-3-methylimidazolium trifluoromethanesulfonate]
[2]
Settings	mass density [kg/m3]	viscosity [mPa·s]
278.15 K	1400.52	96
288.15 K	1392.04	61
298.15 K	1383.6	41
308.15 K	1375.22	29
318.15 K	1366.9	21
328.15 K	1358.63	16
338.15 K	1350.43	13
348.15 K	1342.3	11

CCOS(=O)(=O)[O-].CCn1cc[n+](C)c1 [1-ethyl-3-methylimidazolium ethyl sulfate]
[2]
Settings	mass density [kg/m3]	viscosity [mPa·s]
278.15 K	1251.12	308
288.15 K	1244.13	166
298.15 K	1237.37	95
308.15 K	1230.61	62
318.15 K	1223.9	41
328.15 K	1217.23	30
338.15 K	1210.6	21
348.15 K	1204.01	17
